Experimental data from PubChem BioAssay (NCI).
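GI50: concentration for 50% inhibition of growth. TGI: concentration producing complete growth inhibition.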

Columns and labels:
Assay in all cases: NCI anticancer screen, dose series, 384-well format
MOLT-4 leukemia = tested on: MOLT-4 leukemia
HT29 colon = tested on: HT29 colon
UO-31 renal = tested on: UO-31 renal
T-47D breast = tested on: T-47D breast
MCF7 breast = tested on: MCF7 breast
UACC-62 melanoma = tested on: UACC-62 melanoma
SF-295 CNS = tested on: SF-295 CNS
DU-145 prostate = tested on: DU-145 prostate
COLO 205 colon = tested on: COLO 205 colon
OVCAR-8 ovarian = tested on: OVCAR-8 ovarian
OVCAR-4 ovarian = tested on: OVCAR-4 ovarian
U251 glioblastoma = tested on: U251 glioblastoma
SK-MEL-5 melanoma = tested on: SK-MEL-5 melanoma
HCT-15 colon = tested on: HCT-15 colon
BT-549 breast = tested on: BT-549 breast
M14 melanoma = tested on: M14 melanoma
SN12C renal = tested on: SN12C renal
OVCAR-3 ovarian = tested on: OVCAR-3 ovarian
NCI-H226 lung = tested on: NCI-H226 lung
HL-60(TB) leukemia = tested on: HL-60(TB) leukemia
RXF 393 renal = tested on: RXF 393 renal
NCI-H23 lung = tested on: NCI-H23 lung
TK-10 renal = tested on: TK-10 renal
MDA-MB-468 breast = tested on: MDA-MB-468 breast
IGROV1 ovarian = tested on: IGROV1 ovarian
MDA-MB-231 breast = tested on: MDA-MB-231 breast
SF-539 CNS = tested on: SF-539 CNS
HOP-92 NSCLC = tested on: HOP-92 NSCLC

SMILES: Cc1c2c(nn1C)CSCc1cc(n(C)n1)CSc1cc(c3ccccc3c1)OCCCc1c(C(=O)O)n(C)c3c-2c(Cl)ccc13
- GI50 (MOLT-4 leukemia): 0.0856 µM
- TGI (MOLT-4 leukemia): 0.236 µM
- GI50 (HT29 colon): 3.49 µM
- TGI (HT29 colon): 11.3 µM
- GI50 (UO-31 renal): 3.82 µM
- TGI (UO-31 renal): 14.6 µM
- GI50 (T-47D breast): 2.3 µM
- TGI (T-47D breast): 8.32 µM
- GI50 (MCF7 breast): 0.336 µM
- TGI (MCF7 breast): 2.75 µM
- GI50 (UACC-62 melanoma): 0.134 µM
- TGI (UACC-62 melanoma): 0.349 µM
- GI50 (SF-295 CNS): 1.85 µM
- TGI (SF-295 CNS): 4.23 µM
- GI50 (DU-145 prostate): 2.98 µM
- TGI (DU-145 prostate): 8.97 µM
- GI50 (COLO 205 colon): 5.21 µM
- TGI (COLO 205 colon): 17.3 µM
- GI50 (OVCAR-8 ovarian): 4.01 µM
- TGI (OVCAR-8 ovarian): 15.3 µM
- GI50 (OVCAR-4 ovarian): 0.459 µM
- TGI (OVCAR-4 ovarian): 3.54 µM
- GI50 (U251 glioblastoma): 2.35 µM
- TGI (U251 glioblastoma): 4.92 µM
- GI50 (SK-MEL-5 melanoma): 1.23 µM
- TGI (SK-MEL-5 melanoma): 2.69 µM
- GI50 (HCT-15 colon): 4.49 µM
- TGI (HCT-15 colon): 15.5 µM
- GI50 (BT-549 breast): 1.62 µM
- TGI (BT-549 breast): 4.58 µM
- GI50 (M14 melanoma): 2.8 µM
- TGI (M14 melanoma): 8.79 µM
- GI50 (SN12C renal): 3.4 µM
- TGI (SN12C renal): 13.4 µM
- GI50 (OVCAR-3 ovarian): 1.76 µM
- TGI (OVCAR-3 ovarian): 3.69 µM
- GI50 (NCI-H226 lung): 2.59 µM
- TGI (NCI-H226 lung): 7.4 µM
- GI50 (HL-60(TB) leukemia): 0.0122 µM
- TGI (HL-60(TB) leukemia): 0.0248 µM
- GI50 (RXF 393 renal): 0.375 µM
- TGI (RXF 393 renal): 2.13 µM
- GI50 (NCI-H23 lung): 0.185 µM
- TGI (NCI-H23 lung): 0.861 µM
- GI50 (TK-10 renal): 3.3 µM
- TGI (TK-10 renal): 12.7 µM
- GI50 (MDA-MB-468 breast): 0.126 µM
- TGI (MDA-MB-468 breast): 0.581 µM
- GI50 (IGROV1 ovarian): 2.85 µM
- TGI (IGROV1 ovarian): 10.9 µM
- GI50 (MDA-MB-231 breast): 6.22 µM
- TGI (MDA-MB-231 breast): 18.5 µM
- GI50 (SF-539 CNS): 1.74 µM
- TGI (SF-539 CNS): 4.35 µM
- GI50 (HOP-92 NSCLC): 2.08 µM
- TGI (HOP-92 NSCLC): 5.64 µM
